Data on seven molecules can be found in US8604029B2, “2-[(2-substituted)-indolizin-3-yl]-2-oxo-acetamide derivatives as antifungal agents” (F2G Ltd British Body Corporate, priority 2006, dated 2013).

≈ marks a conversion by molar mass, not a printed value. A value given as a limit tells only on which side of the number the result lay.

Holding throughout (format): cell-based
One experiment has as its system Aspergillus flavus. The experiment in a line: MIC measurement, YAG medium. Particulars: MIC banded into grades, lowest concentration inhibiting growth by >70%; for MIC: Aspergillus flavus. The method, boiled down: (§1)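 Spores from 5-day Sabouraud agar cultures were diluted in YAG medium (1% glucose, 1% ammonium chloride, 0.5% yeast extract) to a final inoculum of 1-2×10^4 cfu/mL, with drug at 50-0.05 mg/L. Plates were incubated 24 h at 35° C and read as OD 485 nm. MIC is the lowest concentration giving >70% inhibition versus drug-free control, in mg/L.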

A further experiment deals with Aspergillus niger. The experiment in a line: MIC measurement, YAG medium. Particulars: MIC banded into grades; for MIC: Aspergillus niger. The method, boiled down: as §1
In experiment [1] the test system is Aspergillus fumigatus AF210. As to the kind of experiment: MIC measurement, YAG medium. To be noted: MIC banded into grades; for MIC: Aspergillus fumigatus, strain AF210, read-out: MIC A. fumigatus 210. The method, boiled down: as §1
The next experiment relates to Aspergillus fumigatus. As to the kind of experiment: MIC measurement, YAG medium. Particulars: YAG medium, MIC banded into grades, strain AF293; for MIC: Aspergillus fumigatus, read-out: MIC A. fumigatus. The method, boiled down:
as §1

In a further experiment the test system is Aspergillus terreus AT49. The experiment in a line: MIC measurement, YAG medium. Particulars: MIC banded into grades; for MIC: Aspergillus terreus, strain AT49, read-out: MIC A. terreus 49. The method, boiled down:
as §1

The subject of a further experiment is Aspergillus terreus. The experiment in a line: MIC measurement, YAG medium. Particulars: MIC banded into grades, strain not named in head (AT4); for MIC: Aspergillus terreus. The method, boiled down:
as §1

A further experiment relates to Fusarium solani. The experiment in a line: 24 hr MIC measurement, RPMI medium. Particulars: Fusarium solani FS2, MIC banded into grades. As to the method: Between 1 and 5 mgs of compound were accurately weighed out into a sterile Eppendorf tube. The compound was dissolved in DMSO to give a solution containing […]. Tubes were stored at −20° C. until required.
On the day of testing thawed solutions were vortex mixed to ensure homogeneity. 30 μL of solution was removed and added to 570 μL of sterile water in a separate sterile Eppendorf. The thoroughly mixed solution was used to prepare a series of doubling dilutions in water, in a deep well plate. Thirteen replicate plates were prepared using a Minitrak by aspirating 20 μL from each well into eleven clear polystyrene 96 well plates.
Spores of Aspergillus spp. […]
This produced MIC plates with a drug range 50-0.05 mg/L and organism inocula of 1-2×10^4 cfu/mL for Aspergillus spp. and other filamentous fungi and 1-2×10^3 cfu/mL for yeasts. […] Growth was assessed by monitoring the optical density at 485 nm for each well. […] MICs are recorded as mg/L. Other growth media can be used for susceptibility testing, and the activity of the described compounds can also be assessed in a medium comprising 1% glucose, 1% ammonium chloride and 0.5% yeast extract (YAG medium). […] Growth was assessed by monitoring the optical density at 485 nm for each well. […]

As for `Cc1ccccc1-c1cc2ccccn2c1C(=O)C(=O)Nc1ccc(N2CCN(Cc3ccco3)CC2)cn1` [Example 35, N-[5-(2-Furan-2-yl-methyl-piperazin-yl)-peridin-2-yl]-2-oxo-2-(2-o-tolyl-indolizin-3-yl)-acetamide], the “MIC A. flavus” value against Aspergillus flavus is on record as 3 (A grade of 3 represents an MIC of less than 1 mg/L). In the experiment with Aspergillus niger, the “MIC A. niger” value is listed as 3 (A grade of 3 represents an MIC of less than 1 mg/L). Further, in experiment [1] (strain AF210), the “MIC A. fumigatus 210” value is recorded as 3 (A grade of 3 represents an MIC of less than 1 mg/L). In addition, in the experiment on Aspergillus fumigatus, the “MIC A. fumigatus” value is 3 (A grade of 3 represents an MIC of less than 1 mg/L). In the experiment on Aspergillus terreus AT49 (strain AT49), the “MIC A. terreus 49” value is recorded as 3 (A grade of 3 represents an MIC of less than 1 mg/L). For the same molecule, the “MIC A. terreus” value in the experiment on Aspergillus terreus is 3 (A grade of 3 represents an MIC of less than 1 mg/L).

By MIC is commonly meant the lowest concentration that inhibits growth of the organism. Consider `Cc1cc(N2CCN(c3ccc(NC(=O)C(=O)c4c(-c5ccccc5)cc5ccccn45)cc3)CC2)nc(C)n1` [Example 45], for which the MIC with Aspergillus flavus is under 1 µg/mL; with Aspergillus niger, 1 to 10 µg/mL (≈ 1.88 to 18.8 µM); in experiment [1], under 1 µg/mL; with Aspergillus fumigatus it was under 1 µg/mL; with Aspergillus terreus AT49, under 1 µg/mL; with Aspergillus terreus it was under 1 µg/mL.

`Cc1cc(C)nc(N(C)CCCc2ccc(NC(=O)C(=O)c3c(-c4ccccc4)cc4ccccn34)cc2)c1` [Example 70, N-(4-{3-[(4,6-Dimethyl-pyridin-2-yl)-methyl-amino]-propyl}-phenyl)-2-oxo-2-(2-phenyl-indolizin-3-yl)-acetamide]: the MIC (with Aspergillus flavus; with Aspergillus niger; in experiment [1]; in the experiment on Aspergillus fumigatus; with Aspergillus terreus AT49; in the experiment on Aspergillus terreus) was under 1 µg/mL throughout.

Regarding `C=C1CCN(c2ccc(NC(=O)C(=O)c3c(-c4ccccc4)cc4ccccn34)cc2)CC1` [Example 3, N-[4-(4-methylene-piperidin-1-yl)-phenyl]-2-oxo-2-(2-phenyl-indolizin-3yl) acetamide], the MIC (in the experiment on Aspergillus flavus; against Aspergillus niger; in experiment [1]; in the experiment on Aspergillus fumigatus; in the experiment with Aspergillus terreus AT49; with Aspergillus terreus) was under 1 µg/mL in each case. Further, the MIC against Fusarium solani is under 1 µg/mL.

For the molecule `C[C@@H]1CN(C2CCN(c3ccc(NC(=O)C(=O)c4c(-c5ccccc5)cc5ccccn45)cc3)CC2)C[C@H](C)O1` [Example 24, N-{4-[4-(2,6-Dimethyl-morpholin-4-yl)-piperidin-1-yl]-phenyl}-2-oxo-2-(2-phenyl-indolizin-3-yl)-acetamide], the MIC (against Aspergillus flavus; against Aspergillus niger; in experiment [1]; with Aspergillus fumigatus; in the experiment on Aspergillus terreus AT49; in the experiment on Aspergillus terreus) was under 1 µg/mL throughout. Moreover, the minimal inhibitory concentration (MIC) against Fusarium solani fell in the range of 1 to 10 µg/mL (≈ 1.86 to 18.6 µM).

Take `O=C(Nc1ccc(N2CCN(Cc3ccco3)CC2)nc1)C(=O)c1c(-c2ccccc2)cc2ccccn12` [Example 34]: the minimal inhibitory concentration (MIC) (against Aspergillus flavus; in the experiment with Aspergillus niger; in experiment [1]; in the experiment on Aspergillus fumigatus; in the experiment on Aspergillus terreus AT49; in the experiment with Aspergillus terreus) was under 1 µg/mL in each case.

Turning to `O=C(Nc1ccc(N2CCN(c3ccccn3)CC2)cc1)C(=O)c1c(-c2ccccc2)cc2ccccn12` [Example 41, 2-Oxo-2-(2-phenyl-indolizin-3yl)-N-[4-(4-pyridin-2-yl-piperizin-1-yl)-phenyl]-acetamide], the minimum inhibitory concentration (MIC) (in the experiment with Aspergillus flavus; against Aspergillus niger; in experiment [1]; with Aspergillus fumigatus; in the experiment on Aspergillus terreus AT49; in the experiment with Aspergillus terreus) was under 1 µg/mL throughout.
